We go through 9 compounds from patent US9884825B2, “Curcumin analogs and methods of making and using thereof” (Georgia State University Research Foundation, Inc., priority 2012, dated 2018).

Where two headings read alike, the source gives them in different places.

One data set deals with Molt4 cell. Description: Cytotoxicity against MOLT4 cell line. As to conditions: Homo sapiens, MOLT-4; Table 3, SM compounds. The format is cell-based.
Data set [1] relates to human cervical cancer cells (HeLa). Description: MTT cytotoxicity assay, HeLa cells. As to conditions: for IC50: Homo sapiens. The format is cell-based. How it is done:
(§1) Two cell human cancer cell lines were used in this study: human cervical cancer cells (HeLa) and human embryonic kidney 293 cells (Hek). The cell lines were obtained from ATCC (Rockville, Md., USA). Cell lines were cultured at 37° C. and 5% CO2 in DMEM medium with 10% fetal bovine serum (FBS) and 1% penicillin/streptomycin (all obtained from GibcoBRL, Grand Island, N.Y.). Cells were passaged three times weekly by trypsinisation with 0.25% trypsin/0.02% EDTA solution (Sigma) into 75 cm^2 tissue culture flasks (Nunc, Denamark).
(§2) Both human cervical cancer cells (HeLa) and human embryonic kidney 293 cells (Hek) cell lines were seeded into 96-well plate (2.5×10^4 in 100 μL per well). Testing compounds were dissolved or suspended in DMSO to make 10 mM stock solutions. Addition of compounds was performed after adherent cells reached 40-50% confluence. After incubation for 48 h at 37° C. in humidified atmosphere with 5% CO2, 10 μL of MTT (5 mg/mL in PBS) was added to each well and incubated for another 4 h. The culture medium was then aspirated and 100 μL of DMSO was added to each well. Optical densities at 490 nm were measured by microplate reader (PERKINELMER VICTOR 3V model 1420). All tests were performed in triplicates. Doxorubicin was used as a positive control and the same amount DMSO without compound was used as negative control. IC50 values were obtained from the curve fitting by using Sigma plot10.
On the technique in general: Formazan colour is commonly taken as a measure of viable cells.

The subject of the next data set is DU145 cell. Briefly: Cytotoxicity against DU145 cell line. The format is cell-based. As to conditions: Homo sapiens, DU-145, mean ± spread, unit inferred, read-out: IC50 DU145 cell (Table 6).
Another data set has as its system KB cell. Description: Cytotoxicity against KB cell line. The format is cell-based. As to conditions: Homo sapiens, mean ± spread, unit inferred, read-out: IC50 KB cell (Table 6).
For data set [2], the system named is human embryonic kidney 293 cells (Hek). Briefly: MTT cytotoxicity assay, Hek cells. The data set is classed as cell-based. As to conditions: Hek 293 cells, 48 h incubation. As for the experimental part:
as §1, §2

In a further data set the test system is PC3 cell. Briefly: Cytotoxicity against PC3 cell line. The data set is classed as cell-based. As to conditions: Homo sapiens, PC-3, mean ± spread, unit inferred, read-out: IC50 PC3 cell (Table 6).
Setting [3] is: HeLa, Table 3, SM compounds, read-out: IC50 (μM) against Hela cell.
Where [4] appears, read: HeLa cells, MTT assay, 48 h incubation, read-out: IC50 (μM) Hela.
Where [5] appears, read: HeLa cells, MTT assay, range or bound stated in text, read-out: IC50 against HeLa cancer cell lines.

In the case of `COc1cc(/C=C2\CC/C(=C\c3ccc(OCCn4ccnc4C)c(OC)c3)C2=O)ccc1OCCn1ccnc1C` [SM232], the results for the IC50 (in the data set with Molt4 cell; in data set [1] (setting [3])) were 0.9 µM and 0.1 µM, respectively.
For `COc1cc(/C=C2\CC/C(=C\c3ccc(OCCn4ccnc4)c(OC)c3)C2=O)ccc1OCCn1ccnc1` [SM223], the IC50 (in the data set on Molt4 cell; in data set [1] (setting [3])) was above 2.5 µM each time.
Consider `COc1cccc2c1C(=O)c1c(O)c3c(c(O)c1C2=O)C[C@@](O)(C(=O)CO)C[C@@H]3O[C@H]1C[C@H](N)[C@H](O)[C@H](C)O1` [Doxorubicin, reference compound], for which the IC50 (usually the point on the concentration scale where inhibition reaches its midpoint) with DU145 cell came to 470 ± 250 nM; with KB cell it was 400 ± 110 nM; in data set [2] (Homo sapiens, HEK293, 48 h), 0.95 µM; in the data set on PC3 cell, 230 ± 10 nM; in data set [1] (HeLa cell, mean ± spread, unit inferred, read-out: IC50 HeLa cell (Table 6)), 0.96 ± 0.27 µM; in data set [1] (setting [4]), 2.89 µM.
`Cc1ccc(S(=O)(=O)N2C/C(=C\c3ccc(F)cc3)C(=O)/C(=C/c3ccc(F)cc3)C2)cc1` [3j, 3,5-Bis(4-fluorobenzylidene)-1-tosylpiperidin-4-one]: the melting point (commonly the temperature, or range, at which the solid turns liquid) turned out to be 204 °C. For the same compound, in data set [2], the IC50 worked out at 1.24 µM. Moreover, the IC50 in data set [2] (Homo sapiens, HEK293, 48 h) is 1.24 to 3.54 µM. Besides, in data set [1] (setting [4]), the IC50 is 0.61 µM. Further, in data set [1] (setting [5]), the IC50 is 0.3 to 1.5 µM.
Consider `COc1cc(/C=C2\CC/C(=C\c3ccc(OCCN4CCOCC4)c(OC)c3)C2=O)ccc1OCCN1CCOCC1` [SM218], for which the IC50 (with Molt4 cell; in data set [1] (setting [3])) was above 2.5 µM throughout.
On to `COc1cc(/C=C2\CC/C(=C\c3ccc(OCCN4CCCCC4)c(OC)c3)C2=O)ccc1OCCN1CCCCC1` [SM226], for which the IC50 stood at 0.4 µM in the data set with Molt4 cell and 0.02 µM in data set [1] (setting [3]).
In the same order, the values of `COc1cc(/C=C2\CC/C(=C\c3ccc(OCCBr)c(OC)c3)C2=O)ccc1OCCBr` [SM216] are above 50 µM and above 2.5 µM.
For the compound `Cc1ccc(S(=O)(=O)N2C/C(=C\c3ccc(Br)cc3)C(=O)/C(=C/c3ccc(Br)cc3)C2)cc1` [3a, 3,5-Bis(4-bromobenzylidene)-1-tosylpiperidin-4-one], the melting point came to 214 °C. This compound also had an IC50 in data set [2] of 1.39 µM. In data set [2] (Homo sapiens, HEK293, 48 h), this compound registered an IC50 of 1.24 to 3.54 µM. Also, the IC50 in data set [1] (setting [4]) stood at 0.28 µM. The IC50 in data set [1] (setting [5]) lay in the range of 0.3 to 1.5 µM. In addition, the “cytotoxicity against HeLa cells, in words” value in data set [1] (MTT assay, screening at 50 μM, 20 μM and 2 μM (FIGS. 1-2)) is “very good activity”.
For `COc1cc(/C=C2\CC/C(=C\c3ccc(OCCN(C)C)c(OC)c3)C2=O)ccc1OCCN(C)C` [SM229], the figures for the IC50 (with Molt4 cell; in data set [1] (setting [3])) were 0.5 µM and 0.03 µM, respectively.
